The nature of data set [1]: (§1) Toxicity against brine shrimp after 24 hr by brine shrimp lethality test. It is filed as organism-based. The conditions noted are these: artemia, in vivo.
Data set [2] concerns Artemia. Described as §1. It is filed as organism-based. As to conditions: in vivo, 24 h.

Each structure is given as a SMILES string.

Usually LC50 stands for the concentration lethal to half of the exposed cells or organisms. High values mean a less lethal substance, low ones a more lethal substance. As to `CCCCCCC/C=C/CC/C=C/[C@@H](O)[C@H](CO[C@@H]1O[C@H](CO)[C@@H](O)[C@H](O)[C@H]1O)NC(=O)[C@H](O)CCCCCCCCCCCCCCCCCCCC`, in data set [1], the LC50 at 24 h turned out to be 170 µM.

For the compound `CCCCCCC/C=C/CC/C=C/[C@@H](O)[C@H](CO[C@@H]1O[C@H](CO)[C@@H](O)[C@H](O)[C@H]1O)NC(=O)[C@H](O)CCCCCCCCCCCCCCCCCCCCCC`, the LC50 at 24 h in data set [1] stood at 200 µM. Take `CC1=C(C)[C@@]23Oc4c(C)c(C)c5c(c4C[C@@]2(CC[C@@](C)(CCCC(C)CCCC(C)CCCC(C)C)O3)C2(Cc3c4c(c(C)c(C)c3O2)O[C@](C)(CCCC(C)CCCC(C)CCCC(C)C)CC4)C1=O)CC[C@@](C)(CCCC(C)CCCC(C)CCCC(C)C)O5` (stereo partly specified) [FEROTOCOTRIMER C]: in data set [2], the Activity entry is on record as “Non-toxic”.

As to `CC1=C(C)[C@]23Oc4c(C)c(C)c5c(c4C[C@]2(CC[C@@](C)(CCCC(C)CCCC(C)CCCC(C)C)O3)C2(Cc3c4c(c(C)c(C)c3O2)O[C@](C)(CCCC(C)CCCC(C)CCCC(C)C)CC4)C1=O)CC[C@@](C)(CCCC(C)CCCC(C)CCCC(C)C)O5` (stereo partly specified) [FEROTOCOTRIMER D], the Activity entry in data set [2] was “Non-toxic”. As for `CC1=C(C)[C@]23Oc4c(C)c(C)c5c(c4C[C@]2(CC[C@@](C)(CCCC(C)CCCC(C)CCCC(C)C)O3)C2(CCc3c4c(c(C)c(C)c3O2)O[C@](C)(CCCC(C)CCCC(C)CCCC(C)C)CC4)C1=O)CC[C@@](C)(CCCC(C)CCCC(C)CCCC(C)C)O5` (stereo partly specified) [TOCOPHEROL TRIMER IVA], in data set [2], the Activity result is “Non-toxic”.

Take `CC1=C(C)[C@@]23Oc4c(C)c(C)c5c(c4C[C@@]2(CC[C@@](C)(CCCC(C)CCCC(C)CCCC(C)C)O3)C2(CCc3c4c(c(C)c(C)c3O2)O[C@](C)(CCCC(C)CCCC(C)CCCC(C)C)CC4)C1=O)CC[C@@](C)(CCCC(C)CCCC(C)CCCC(C)C)O5` (stereo partly specified) [TOCOPHEROL TRIMER IVB]: the Activity entry in data set [2] is on record as “Non-toxic”.

These data come from ChEMBL document CHEMBL1145418, “Cerebrosides and tocopherol trimers from the seeds of Euryale ferox” (J Nat Prod, 2007).
